Experiments:
[1] = Solubility (summary of chemical properties); assay type: physicochemical
Lymphocyte [2] = assay: Con A induced lymphocyte proliferation (mitogen induced lymphocyte proliferation); assay type: cell-based; settings: for X̄ cpm: control 35,059 cpm
Source text: In Table 1 the effect of NPT 15459 on con A Induced Proliferation is described. The procedure is described in Simon U.S. patent 4,221,909, column 24, line 12 to column 25, line 10.

[3] = test system: SRBC Induced Antibody Formation; assay: SRBC induced antibody formation; assay type: in vivo; settings: for X̄ PFC/10^6 Cells: saline control 53
Source text: In Table 2 the SRBC Induced Antibody Formation procedure employed was that shown in Simon EPO application 0036077 page 46.

Lymphocyte [4] = assay: LPS induced lymphocyte proliferation (mitogen induced lymphocyte proliferation); assay type: cell-based; settings: for X̄ cpm: control 7044 cpm
Source text: In Table 1 the effect of NPT 15459 on LPS Induced Proliferation is described.

[5] = Lymphocyte, 5.0 µg/ml, read-out: Percent Change from Control
[6] = Lymphocyte, 10.0 µg/ml, read-out: Percent Change from Control

Solubility ([1]; HCl (Aq), acetic acid, methanol, ethanol): very soluble
Solubility ([1]; benzene, water): insoluble
Solubility ([1]; isopropanol): soluble
SMILES: CCCCCC[C@H]([C@H](C)O)n1cnc(C(N)=O)c1N (relative stereo) [NPT 15459, erythro-3-(2-hydroxy-3-nonyl)-4-amino-imidazole-5-carboxamide]
X̄ cpm (Lymphocyte [2]; 5.0 µg/ml): 20,095 cpm
X̄ cpm (Lymphocyte [2]; 10.0 µg/ml): 12,736 cpm
X̄ cpm (Lymphocyte [2]; .020 µg/ml): 35,747 cpm
X̄ cpm (Lymphocyte [2]; .500 µg/ml): 30,920 cpm
inhibition at 5 µg/mL (Lymphocyte [2]; [5]): 43%
inhibition at 10 µg/mL (Lymphocyte [2]; [6]): 65%
inhibition at 0.02 µg/mL (Lymphocyte [2]; Lymphocyte, .020 µg/ml, read-out: Percent Change from Control): -2%
inhibition at 0.5 µg/mL (Lymphocyte [2]; Lymphocyte, .500 µg/ml, read-out: Percent Change from Control): 12%
Percent Change from Control ([3]; 5.0 mg/kg): +24%
X̄ PFC/10^6 Cells ([3]; 5.0 mg/kg): 66 PFC/10^6 Cells
Percent Change from Control ([3]; .05 mg/kg): +196%
X̄ PFC/10^6 Cells ([3]; .05 mg/kg): 157 PFC/10^6 Cells
Percent Change from Control ([3]; .5 mg/kg): +126%
X̄ PFC/10^6 Cells ([3]; .5 mg/kg): 120 PFC/10^6 Cells
X̄ cpm (Lymphocyte [4]; 5.0 µg/ml): 4128 cpm
X̄ cpm (Lymphocyte [4]; 10.0 µg/ml): 2449 cpm
X̄ cpm (Lymphocyte [4]; .02 µg/ml): 6184 cpm
X̄ cpm (Lymphocyte [4]; .5 µg/ml): 6676 cpm
inhibition at 5 µg/mL (Lymphocyte [4]; [5]): 42%
inhibition at 10 µg/mL (Lymphocyte [4]; [6]): 66%
inhibition at 0.02 µg/mL (Lymphocyte [4]; Lymphocyte, .02 µg/ml, read-out: Percent Change from Control): 12%
inhibition at 0.5 µg/mL (Lymphocyte [4]; Lymphocyte, .5 µg/ml, read-out: Percent Change from Control): 6%
